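Exposure lasted 48 hours, with cells grown in 96-well plates and compounds tested at five concentrations. Here, GI50 denotes the concentration required for 50% inhibition of growth.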 Calls of active or inactive are those of the source. Rule as the data show it: active = GI50 up to about 1.1 µM and inactive = higher.
Legend:
Test in all cases: NCI tumour cell line growth inhibition, 48 h
NCI-H23 = tested on: NCI-H23
COLO 205 = tested on: COLO 205
U-251 = tested on: U-251
SR = tested on: SR
UACC-62 = tested on: UACC-62
786-0 = tested on: 786-0
NCI-H522 = tested on: NCI-H522
HOP-62 = tested on: HOP-62
DU-145 = tested on: DU-145
RPMI-8226 = tested on: RPMI-8226
Hs-578T = tested on: Hs-578T
SK-MEL-5 = tested on: SK-MEL-5
EKVX = tested on: EKVX
UO-31 = tested on: UO-31
OVCAR-3 = tested on: OVCAR-3
OVCAR-8 = tested on: OVCAR-8
NCI/ADR-RES = tested on: NCI/ADR-RES
SNB-19 = tested on: SNB-19
M14 = tested on: M14
IGROV-1 = tested on: IGROV-1
MDA-MB-435 = tested on: MDA-MB-435
Malme-3M = tested on: Malme-3M
SN12C = tested on: SN12C
TK-10 = tested on: TK-10
KM12 = tested on: KM12
BT-549 = tested on: BT-549
CCRF-CEM = tested on: CCRF-CEM
LOX IMVI = tested on: LOX IMVI
SF-268 = tested on: SF-268
MDA-N = tested on: MDA-N
K562 = tested on: K562
NCI-H460 = tested on: NCI-H460
ACHN = tested on: ACHN
T47D = tested on: T47D
MDA-MB-231 = tested on: MDA-MB-231
RXF 393 = tested on: RXF 393
SK-OV-3 = tested on: SK-OV-3
MOLT-4 = tested on: MOLT-4
MCF7 = tested on: MCF7
HT-29 = tested on: HT-29
SNB-75 = tested on: SNB-75
A549 = tested on: A549
HL-60 = tested on: HL-60
A498 = tested on: A498
HOP-92 = tested on: HOP-92
HCT-15 = tested on: HCT-15
HCT-116 = tested on: HCT-116
SK-MEL-28 = tested on: SK-MEL-28
CAKI-1 = tested on: CAKI-1
SF-539 = tested on: SF-539
SF-295 = tested on: SF-295
NCI-H226 = tested on: NCI-H226
UACC-257 = tested on: UACC-257
OVCAR-4 = tested on: OVCAR-4
OVCAR-5 = tested on: OVCAR-5
SK-MEL-2 = tested on: SK-MEL-2
PC-3 = tested on: PC-3
SW-620 = tested on: SW-620

For `N#CC(C#N)=Cc1c[nH]c(=O)[nH]c1=O`, the GI50 (NCI-H23) was > 100 µM (inactive), the GI50 (COLO 205) was > 100 µM (inactive) and the GI50 (U-251) was > 100 µM (inactive). The GI50 (SR) was 0.152 µM (active), the GI50 (UACC-62) was > 100 µM (inactive) and the GI50 (786-0) was > 100 µM (inactive). For the same molecule, the GI50 (NCI-H522) was 41 µM (inactive), the GI50 (HOP-62) was > 100 µM (inactive) and the GI50 (DU-145) was > 100 µM (inactive). The GI50 (RPMI-8226) was > 100 µM (inactive), the GI50 (Hs-578T) was > 100 µM (inactive) and the GI50 (SK-MEL-5) was > 100 µM (inactive). The GI50 (EKVX) was > 100 µM (inactive), the GI50 (UO-31) was > 100 µM (inactive) and the GI50 (OVCAR-3) was > 100 µM (inactive). The GI50 (OVCAR-8) was > 100 µM (inactive), the GI50 (NCI/ADR-RES) was > 100 µM (inactive) and the GI50 (SNB-19) was > 100 µM (inactive). For the same molecule, the GI50 (M14) was > 100 µM (inactive), the GI50 (IGROV-1) was > 100 µM (inactive) and the GI50 (MDA-MB-435) was > 100 µM (inactive). For the same molecule, the GI50 (Malme-3M) was 6.35 µM (inactive), the GI50 (SN12C) was > 100 µM (inactive) and the GI50 (TK-10) was > 100 µM (inactive). For the same molecule, the GI50 (KM12) was > 100 µM (inactive), the GI50 (BT-549) was > 100 µM (inactive) and the GI50 (CCRF-CEM) was 17.8 µM (inactive). For the same molecule, the GI50 (LOX IMVI) was > 100 µM (inactive), the GI50 (SF-268) was > 100 µM (inactive) and the GI50 (MDA-N) was > 100 µM (inactive). For the same molecule, the GI50 (K562) was > 100 µM (inactive), the GI50 (NCI-H460) was > 100 µM (inactive) and the GI50 (ACHN) was > 100 µM (inactive). For the same molecule, the GI50 (T47D) was > 100 µM (inactive), the GI50 (MDA-MB-231) was > 100 µM (inactive) and the GI50 (RXF 393) was > 100 µM (inactive). For the same molecule, the GI50 (SK-OV-3) was > 100 µM (inactive), the GI50 (MOLT-4) was 43.1 µM (inactive) and the GI50 (MCF7) was > 100 µM (inactive). The GI50 (HT-29) was > 100 µM (inactive), the GI50 (SNB-75) was > 100 µM (inactive) and the GI50 (A549) was > 100 µM (inactive). For the same molecule, the GI50 (HL-60) was > 100 µM (inactive), the GI50 (A498) was > 100 µM (inactive) and the GI50 (HOP-92) was > 100 µM (inactive). The GI50 (HCT-15) was over 100 µM, the GI50 (HCT-116) was > 100 µM (inactive) and the GI50 (SK-MEL-28) was > 100 µM (inactive). The GI50 (CAKI-1) was > 100 µM (inactive), the GI50 (SF-539) was > 100 µM (inactive) and the GI50 (SF-295) was > 100 µM (inactive). The GI50 (NCI-H226) was > 100 µM (inactive), the GI50 (UACC-257) was > 100 µM (inactive) and the GI50 (OVCAR-4) was > 100 µM (inactive). For the same molecule, the GI50 (OVCAR-5) was > 100 µM (inactive), the GI50 (SK-MEL-2) was > 100 µM (inactive) and the GI50 (PC-3) was > 100 µM (inactive). For the same molecule, the GI50 (SW-620) was 54.2 µM (inactive).

— ChEMBL document CHEMBL1201862, “PubChem BioAssay data set” (2004)
